Key:
Format in all cases: in vivo
Settings in all cases: 14 days after application
[1] = system: upland rice (Oryza sp., var.Tebonnet, RICE); assay: Pre-emerge greenhouse screening, crop safety (phytotoxicity rating)
How it was run: (§1)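 Plants grown in sandy loam pots received acetone solutions of compound by moving-nozzle track sprayer, 15–1000 g ai/ha. In post-emergence runs the foliage was at the 2-3 leaf stage and spray contained 0.25% v/v non-ionic surfactant. Damage was assessed visually after 14 days (0-100).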

[2] = system: soybean (Glycine max L., var. Pella 86, SOY); assay: as above
How it was run: as §1

[3] = system: field corn (Zea mays L., var. Dekalb 535, CORN); assay: as above
How it was run: as §1

[4] = system: upland rice (Oryza sp., var.Tebonnet, RICE); assay: Post-emerge greenhouse screening, crop safety (phytotoxicity rating)
How it was run: as §1

[5] = system: soybean (Glycine max L., var. Pella 86, SOY); assay: as above
How it was run: as §1

[6] = system: sicklepod (Cassia obtusifolia, CASOB); assay: Post-emerge greenhouse herbicide activity screening, phytotoxicity rating
How it was run: as §1

[7] = system: ivyleaf morningglory (Ipomoea hederacea, IPOHE); assay: as above
How it was run: as §1

[8] = system: common ragweed (Ambrosia artemisiifolia L., AMBEL); assay: as above
How it was run: as §1

[9] = system: johnsongrass (Sorghum halepense, SORHA); assay: as above
How it was run: as §1

[10] = system: green foxtail (Setaria viridis, SETVI); assay: as above
How it was run: as §1

[11] = system: large crabgrass (Digitaria sanguinalis, DIGSA); assay: as above
How it was run: as §1

[12] = system: lambsquarters (Chenopodium album, CHEAL); assay: as above
How it was run: as §1

[13] = system: redroot pigweed (Amaranthus retroflexus, AMARE); assay: as above
How it was run: as §1

[14] = system: velvetleaf (Abutilon theophrasti, ABUTH); assay: as above
How it was run: as §1

[15] = system: barnyardgrass (Echinochloa crus-galli, ECHCG); assay: as above
How it was run: as §1

[16] = system: sicklepod (Cassia obtusifolia, CASOB); assay: Pre-emerge greenhouse herbicide activity screening, phytotoxicity rating
How it was run: as §1

[17] = system: ivyleaf morningglory (Ipomoea hederacea, IPOHE); assay: as above
How it was run: as §1

[18] = system: common ragweed (Ambrosia artemisiifolia L., AMBEL); assay: as above
How it was run: as §1

[19] = system: johnsongrass (Sorghum halepense, SORHA); assay: as above
How it was run: as §1

[20] = system: green foxtail (Setaria viridis, SETVI); assay: as above
How it was run: as §1

[21] = system: large crabgrass (Digitaria sanguinalis, DIGSA); assay: as above
How it was run: as §1

[22] = system: lambsquarters (Chenopodium album, CHEAL); assay: as above
How it was run: as §1

[23] = system: redroot pigweed (Amaranthus retroflexus, AMARE); assay: as above
How it was run: as §1

[24] = system: velvetleaf (Abutilon theophrasti, ABUTH); assay: as above
How it was run: as §1

[25] = system: barnyardgrass (Echinochloa crus-galli, ECHCG); assay: as above
How it was run: as §1

[26] = system: field corn (Zea mays L., var. Dekalb 535, CORN); assay: Post-emerge greenhouse screening, crop safety / corn selectivity (phytotoxicity rating)
How it was run: as §1

With `Fc1cc(Cl)c(Oc2ncccn2)cc1-c1nn2c(c1Cl)CCCC2` [Compound 6-1, 3-Chloro-2-[4-chloro-2-fluoro-5-(2-pyrimidinyloxy)phenyl]-4,5,6,7-tetrahydro-pyrazolo[1,5-a]pyridine] the “RICE crop damage, phytotoxicity rating (0-100 scale)” value (from here on “RICE crop damage”) ([1]; 125 g ai/ha) was 85, the “RICE crop damage” value ([1]; 250 g ai/ha) was 95 and the “SOY crop damage, phytotoxicity rating (0-100 scale)” value (“SOY crop damage” below) ([2]; 125 g ai/ha) was 25. For the same compound, the “SOY crop damage” value ([2]; 250 g ai/ha) was 60, the “CORN crop damage, phytotoxicity rating (0-100 scale)” value (from here on “CORN crop damage”) ([3]; 125 g ai/ha) was 40 and the “CORN crop damage” value ([3]; 250 g ai/ha) was 50. The “RICE crop damage” value ([4]; 125 g ai/ha) was 90, the “RICE crop damage” value ([4]; 250 g ai/ha) was 95 and the “SOY crop damage” value ([5]; 125 g ai/ha) was 95. The “SOY crop damage” value ([5]; 250 g ai/ha) was 100, the “CASOB phytotoxicity rating (0-100 scale)” value ([6]; 125 g ai/ha) was 100 and the “CASOB phytotoxicity rating (0-100 scale)” value ([6]; 250 g ai/ha) was 100. For the same compound, the “IPOHE phytotoxicity rating (0-100 scale)” value ([7]; 125 g ai/ha) was 100, the “IPOHE phytotoxicity rating (0-100 scale)” value ([7]; 250 g ai/ha) was 100 and the “AMBEL phytotoxicity rating (0-100 scale)” value ([8]; 125 g ai/ha) was 85. For the same compound, the “AMBEL phytotoxicity rating (0-100 scale)” value ([8]; 250 g ai/ha) was 90, the “SORHA phytotoxicity rating (0-100 scale)” value ([9]; 125 g ai/ha) was 75 and the “SORHA phytotoxicity rating (0-100 scale)” value ([9]; 250 g ai/ha) was 95. The “SETVI phytotoxicity rating (0-100 scale)” value ([10]; 125 g ai/ha) was 100, the “SETVI phytotoxicity rating (0-100 scale)” value ([10]; 250 g ai/ha) was 100 and the “DIGSA phytotoxicity rating (0-100 scale)” value ([11]; 125 g ai/ha) was 90. For the same compound, the “DIGSA phytotoxicity rating (0-100 scale)” value ([11]; 250 g ai/ha) was 98, the “CHEAL phytotoxicity rating (0-100 scale)” value ([12]; 125 g ai/ha) was 100 and the “CHEAL phytotoxicity rating (0-100 scale)” value ([12]; 250 g ai/ha) was 100. For the same compound, the “AMARE phytotoxicity rating (0-100 scale)” value ([13]; 125 g ai/ha) was 100, the “AMARE phytotoxicity rating (0-100 scale)” value ([13]; 250 g ai/ha) was 100 and the “ABUTH phytotoxicity rating (0-100 scale)” value ([14]; 125 g ai/ha) was 100. The “ABUTH phytotoxicity rating (0-100 scale)” value ([14]; 250 g ai/ha) was 100, the “ECHCG phytotoxicity rating (0-100 scale)” value ([15]; 125 g ai/ha) was 90 and the “ECHCG phytotoxicity rating (0-100 scale)” value ([15]; 250 g ai/ha) was 100. For the same compound, the “CASOB phytotoxicity rating (0-100 scale)” value ([16]; 125 g ai/ha) was 100, the “CASOB phytotoxicity rating (0-100 scale)” value ([16]; 250 g ai/ha) was 100 and the “IPOHE phytotoxicity rating (0-100 scale)” value ([17]; 125 g ai/ha) was 99. The “IPOHE phytotoxicity rating (0-100 scale)” value ([17]; 250 g ai/ha) was 100, the “AMBEL phytotoxicity rating (0-100 scale)” value ([18]; 125 g ai/ha) was 100 and the “AMBEL phytotoxicity rating (0-100 scale)” value ([18]; 250 g ai/ha) was 100. For the same compound, the “SORHA phytotoxicity rating (0-100 scale)” value ([19]; 125 g ai/ha) was 100, the “SORHA phytotoxicity rating (0-100 scale)” value ([19]; 250 g ai/ha) was 100 and the “SETVI phytotoxicity rating (0-100 scale)” value ([20]; 125 g ai/ha) was 100. For the same compound, the “SETVI phytotoxicity rating (0-100 scale)” value ([20]; 250 g ai/ha) was 100, the “DIGSA phytotoxicity rating (0-100 scale)” value ([21]; 125 g ai/ha) was 100 and the “DIGSA phytotoxicity rating (0-100 scale)” value ([21]; 250 g ai/ha) was 100. The “CHEAL phytotoxicity rating (0-100 scale)” value ([22]; 125 g ai/ha) was 100, the “CHEAL phytotoxicity rating (0-100 scale)” value ([22]; 250 g ai/ha) was 100 and the “AMARE phytotoxicity rating (0-100 scale)” value ([23]; 125 g ai/ha) was 100. For the same compound, the “AMARE phytotoxicity rating (0-100 scale)” value ([23]; 250 g ai/ha) was 100, the “ABUTH phytotoxicity rating (0-100 scale)” value ([24]; 125 g ai/ha) was 100 and the “ABUTH phytotoxicity rating (0-100 scale)” value ([24]; 250 g ai/ha) was 100. For the same compound, the “ECHCG phytotoxicity rating (0-100 scale)” value ([25]; 125 g ai/ha) was 99, the “ECHCG phytotoxicity rating (0-100 scale)” value ([25]; 250 g ai/ha) was 100 and the “CORN crop damage” value ([26]; 125 g ai/ha) was 10. The “CORN crop damage” value ([26]; 250 g ai/ha) was 20.

Reference: US6613718B2, “Aryl ether derivatives and processes for their preparation and herbicidal and desiccant compositions containing them” (Ishihara Sangyo Kaisha, Ltd., priority 2001, dated 2003)
